The source of these data is US12479821B2 (MBD CO., LTD., priority 2019, dated 2025).

The test has as its target T1, CYP4A (Homo sapiens, UniProt Q02928).
T1 construct: host or cells: bactosome, i.e. bacterial membrane preparation (own knowledge of the term)
T1 sequence (Q02928 5-519): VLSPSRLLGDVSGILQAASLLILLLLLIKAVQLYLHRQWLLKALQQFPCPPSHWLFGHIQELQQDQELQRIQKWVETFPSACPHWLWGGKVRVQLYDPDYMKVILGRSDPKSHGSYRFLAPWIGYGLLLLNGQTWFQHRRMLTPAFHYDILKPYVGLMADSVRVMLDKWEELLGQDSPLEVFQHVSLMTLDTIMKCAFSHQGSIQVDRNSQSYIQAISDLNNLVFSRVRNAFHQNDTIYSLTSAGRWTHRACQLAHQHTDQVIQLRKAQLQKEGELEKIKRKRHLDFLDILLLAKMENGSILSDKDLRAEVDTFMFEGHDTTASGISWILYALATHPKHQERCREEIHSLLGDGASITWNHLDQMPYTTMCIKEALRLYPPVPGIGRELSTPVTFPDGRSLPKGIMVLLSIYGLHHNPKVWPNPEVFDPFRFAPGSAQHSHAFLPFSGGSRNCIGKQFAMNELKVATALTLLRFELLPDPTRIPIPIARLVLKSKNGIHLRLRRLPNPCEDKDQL
Kind of test: CYP4A enzyme assay (Luciferin-ME luminescence, CYP4A bactosome). It is filed as biochemical. Particulars: compound concentration 5 μM. The method, then:
A commercially available reagent was used for the reagent used in the experiment, and it was manufactured and used if necessary. The device used for activity measurement was EnVision of PerkinElmer or SpectraMax of MOLECULAR DEVICES.
First, CYP4A bactosome and synthetic compound (5 μM) were mixed in assay buffer (100 mM KPO4, 0.1% BSA, 1 mM DTT) in a 384-well plate (white opaque ploystyrene nontreated flat-bottom well), and then reacted at room temperature for 15 minutes. After adding 5 mM Luciferin-ME and NADPH Regeneration system (10× sol.A, 20× sol.B in assay buffer, Cat. Number: V865B, Promega), leave it at room temperature for 30 minutes to allow the CYP4A reaction to occur sufficiently, by adding the Luciferin Detection reagent, the CYP4A reaction was finished, luminescence reaction was induced, and the reaction was carried out at room temperature for 15 minutes. The degree of inhibition of CYP4A activity was measured by comparing the luminescence values from each well with a microplate reader.

Setting [1] is: 75% or more, read-out: % Inhibition 75% or more.
[2] abbreviates: '50%-75%', read-out: % Inhibition 50%-75%.
Where [3] appears, read: 25%-50%, read-out: % Inhibition 25%-50%.

Read-outs that look alike come from different tables or passages of the source.

What is called inhibition is the relative decrease from the control value, in per cent. For `Cc1cc(N2CCN(C(=O)C3CCCN(S(=O)(=O)c4cccc([N+](=O)[O-])c4)C3)CC2)c2ccccc2n1` (stereo not drawn) [Formula 28, (4-(2-methylquinolin-4-yl)piperazin-1-yl) (1-(3-nitrophenylsulfonyl)piperidin-3-yl) methanone], under setting [1], the inhibition at 5 µM is not below 75%.

For `COc1ccc(S(=O)(=O)N2CCCC(C(=O)N3CCN(c4cc(C)nc5ccccc45)CC3)C2)cc1` (stereo not drawn) [Formula 29, (1-(4-methoxyphenylsulfonyl)piperidin-3-yl) (4-(2-methylquinolin-4-yl)piperazin-1-yl)methanone], the inhibition at 5 µM under setting [2] fell in the range of 50 to 75%.

With `Cc1cc(N2CCN(C(=O)C3CCCN(S(=O)(=O)c4c(F)c(F)c(F)c(F)c4F)C3)CC2)c2ccccc2n1` (stereo not drawn) [Formula 30, (4-(2-methylquinolin-4-yl)piperazin-1-yl) (1-(perfluorophenylsulfonyl)piperidin-3-yl) methanone], the inhibition at 5 µM under setting [3] lay in the range of 25 to 50%.

`Cc1cc(N2CCN(C(=O)C3CCCN(S(=O)(=O)c4ccc(N(C)C)cc4)C3)CC2)c2ccccc2n1` (stereo not drawn) [Formula 31, (1-(4-(dimethylamino)phenylsulfonyl)piperidin-3-yl) (4-(2-methylquinolin-4-yl)piperazin-1-yl) methanone]: the inhibition at 5 µM under setting [1] was not below 75%.

For `Cc1cc(N2CCN(C(=O)C3CCCN(S(=O)(=O)c4ccc(O)cc4)C3)CC2)c2ccccc2n1` (stereo not drawn) [Formula 32, (1-(4-hydroxyphenylsulfonyl)piperidin-3-yl) (4-(2-methylquinolin-4-yl)piperazin-1-yl) methanone], the inhibition at 5 µM under setting [1] is not below 75%.

For `Cc1cc(N2CCN(C(=O)C3CCCN(S(=O)(=O)c4ccccc4F)C3)CC2)c2ccccc2n1` (stereo not drawn) [Formula 33, (1-(2-fluorophenylsulfonyl)piperidin-3-yl) (4-(2-methylquinolin-4-yl)piperazin-1-yl) methanone], the inhibition at 5 µM under setting [3] fell in the range of 25 to 50%.

In the case of `Cc1cc(N2CCN(C(=O)C3CCCN(S(=O)(=O)c4ccc(Oc5ccccc5)cc4)C3)CC2)c2ccccc2n1` (stereo not drawn) [Formula 34, (4-(2-methylquinolin-4-yl)piperazin-1-yl) (1-(4-phenoxyphenylsulfonyl)piperidin-3-yl) methanone], the inhibition at 5 µM under setting [3] was in the range of 25 to 50%.

On to `Cc1cc(N2CCN(C(=O)C3CCCN(S(=O)(=O)c4ccc(C#N)cc4)C3)CC2)c2ccccc2n1` (stereo not drawn) [Formula 35, 4-(3-(1-(2-methylquinolin-4-yl)piperazine-4-carbonyl)piperidin-1-ylsulfonyl)benzonitrile], for which, under setting [2], the inhibition at 5 µM lay within 50 to 75%.

For the molecule `Cc1cc(N2CCN(C(=O)C3CCCN(S(=O)(=O)c4ccc(S(C)(=O)=O)cc4)C3)CC2)c2ccccc2n1` (stereo not drawn) [Formula 36, (4-(2-methylquinolin-4-yl)piperazin-1-yl) (1-(4-(methylsulfonyl)phenylsulfonyl)piperidin-3-yl) methanone], under setting [2], the inhibition at 5 µM was in the range of 50 to 75%.

Take `COC(=O)c1ccc(S(=O)(=O)N2CCCC(C(=O)N3CCN(c4cc(C)nc5ccccc45)CC3)C2)cc1` (stereo not drawn) [Formula 37, methyl 4-(3-(1-(2-methylquinolin-4-yl)piperazine-4-carbonyl)piperidin-1-ylsulfonyl)benzoate]: under setting [3], the inhibition at 5 µM was in the range of 25 to 50%.

`Cc1cc(N2CCN(C(=O)C3CCCN(S(=O)(=O)c4ccc(-c5ccccc5)cc4)C3)CC2)c2ccccc2n1` (stereo not drawn) [Formula 38, (4-(2-methylquinolin-4-yl)piperazin-1-yl) (1-(4-phenylbenzenesulfonyl)piperidin-3-yl) methanone]: the inhibition at 5 µM under setting [1] was not below 75%.

As for `COc1cccc(S(=O)(=O)N2CCCC(C(=O)N3CCN(c4cc(C)nc5ccccc45)CC3)C2)c1` (stereo not drawn) [Formula 39, (1-(3-methoxyphenylsulfonyl)piperidin-3-yl) (4-(2-methylquinolin-4-yl)piperazin-1-yl) methanone], the inhibition at 5 µM under setting [2] is 50 to 75%.

In the case of `Cc1cc(N2CCN(C(=O)C3CCCN(S(=O)(=O)c4ccc(Br)cc4)C3)CC2)c2ccccc2n1` (stereo not drawn) [Formula 40, (1-((4-bromophenyl)sulfonyl)piperidin-3-yl) (4-(2-methylquinolin-4-yl)piperazin-1-yl)methanone], the inhibition at 5 µM under setting [3] fell in the range of 25 to 50%.

On to `O=C(C1CCCN(S(=O)(=O)c2ccccc2)C1)N1CCN(c2ccnc3cc(F)ccc23)CC1` (stereo not drawn) [Formula 41, (4-(7-fluoroquinolin-4-yl)piperazin-1-yl) (1-(phenylsulfonyl)piperidin-3-yl) methanone], for which, under setting [2], the inhibition at 5 µM fell in the range of 50 to 75%.

Turning to `O=C(C1CCCN(S(=O)(=O)c2ccc(F)cc2)C1)N1CCN(c2ccnc3cc(F)ccc23)CC1` (stereo not drawn) [Formula 42, (1-((4-fluorophenyl)sulfonyl)piperidin-3-yl) (4-(7-fluoroquinolin-4-yl)piperazin-1-yl) methanone], the inhibition at 5 µM under setting [1] was not below 75%.

With `O=C(C1CCCN(S(=O)(=O)c2ccc(O)cc2)C1)N1CCN(c2ccnc3cc(F)ccc23)CC1` (stereo not drawn) [Formula 43, (4-(7-fluoroquinolin-4-yl)piperazin-1-yl) (1-((4-hydroxyphenyl)sulfonyl)piperidin-3-yl) methanone], under setting [1], the inhibition at 5 µM is not below 75%.

For `CC(=O)Nc1ccc(S(=O)(=O)N2CCCC(C(=O)N3CCN(c4ccnc5cc(F)ccc45)CC3)C2)cc1` (stereo not drawn) [Formula 45, N-(4-(3-(1-(7-fluoroquinolin-4-yl)piperazine-4-carbonyl)piperidin-1-ylsulfonyl)phenyl) acetamide], the inhibition at 5 µM under setting [1] was not below 75%.

For the molecule `CC(=O)Nc1ccc(S(=O)(=O)N2CCC[C@@H](C(=O)N3CCN(c4ccnc5cc(F)ccc45)CC3)C2)cc1` [Formula 46, (R)—N-(4-(3-(1-(7-fluoroquinolin-4-yl)piperazine-4-carbonyl)piperidin-1-ylsulfonyl)phenyl) acetamide], the inhibition at 5 µM under setting [1] was not below 75%.

In the case of `CC(=O)Nc1ccc(S(=O)(=O)N2CCC[C@H](C(=O)N3CCN(c4ccnc5cc(F)ccc45)CC3)C2)cc1` [Formula 47, (S)—N-(4-(3-(1-(7-fluoroquinolin-4-yl)piperazine-4-carbonyl)piperidin-1-ylsulfonyl)phenyl) acetamide], the inhibition at 5 µM under setting [1] is not below 75%.

Consider `O=C(C1CCCN(S(=O)(=O)c2ccc([N+](=O)[O-])cc2)C1)N1CCN(c2ccnc3cc(F)ccc23)CC1` (stereo not drawn) [Formula 50, (4-(7-fluoroquinolin-4-yl)piperazin-1-yl) (1-(4-nitrophenylsulfonyl)piperidin-3-yl) methanone], for which the inhibition at 5 µM under setting [1] was not below 75%.

As for `O=C(C1CCCN(S(=O)(=O)c2cccc([N+](=O)[O-])c2)C1)N1CCN(c2ccnc3cc(F)ccc23)CC1` (stereo not drawn) [Formula 51, (4-(7-fluoroquinolin-4-yl)piperazin-1-yl) (1-(3-nitrophenylsulfonyl)piperidin-3-yl) methanone], the inhibition at 5 µM under setting [1] was not below 75%.

Regarding `CCN(CC)c1ccc(S(=O)(=O)N2CCCC(C(=O)N3CCN(c4ccnc5cc(F)ccc45)CC3)C2)cc1` (stereo not drawn) [Formula 52, (1-(4-(diethylamino)phenylsulfonyl)piperidin-3-yl) (4-(7-fluoroquinolin-4-yl)piperazin-1-yl) methanone], the inhibition at 5 µM under setting [1] was not below 75%.

For `COc1ccc(S(=O)(=O)N2CCCC(C(=O)N3CCN(c4ccnc5cc(F)ccc45)CC3)C2)cc1` (stereo not drawn) [Formula 53, (4-(7-fluoroquinolin-4-yl)piperazin-1-yl) (1-(4-methoxyphenylsulfonyl)piperidin-3-yl) methanone], the inhibition at 5 µM under setting [1] was not below 75%.

For `CC(=O)c1ccc(S(=O)(=O)N2CCCC(C(=O)N3CCN(c4ccnc5cc(F)ccc45)CC3)C2)cc1` (stereo not drawn) [Formula 54, 1-(4-(3-(1-(7-fluoroquinolin-4-yl)piperazine-4-carbonyl)piperidin-1-ylsulfonyl)phenyl) ethanone], the inhibition at 5 µM under setting [1] is not below 75%.

Consider `O=C(C1CCCN(S(=O)(=O)c2ccc(-c3ccccc3)cc2)C1)N1CCN(c2ccnc3cc(F)ccc23)CC1` (stereo not drawn) [Formula 55, (4-(7-fluoroquinolin-4-yl)piperazin-1-yl) (1-(4-phenylbenzenesulfonyl)piperidin-3-yl) methanone], for which, under setting [1], the inhibition at 5 µM was not below 75%.

For `O=C(C1CCCN(S(=O)(=O)c2ccc(Br)cc2)C1)N1CCN(c2ccnc3cc(F)ccc23)CC1` (stereo not drawn) [Formula 56, (1-(4-bromophenylsulfonyl)piperidin-3-yl) (4-(7-fluoroquinolin-4-yl)piperazin-1-yl)methanone], the inhibition at 5 µM under setting [1] is not below 75%.

As for `O=C([C@@H]1CCCN(S(=O)(=O)c2ccc(Br)cc2)C1)N1CCN(c2ccnc3cc(F)ccc23)CC1` [Formula 57, (R)-(1-(4-bromophenylsulfonyl)piperidin-3-yl) (4-(7-fluoroquinolin-4-yl)piperazin-1-yl) methanone], the inhibition at 5 µM under setting [1] was determined as 0%.
